Holding throughout (assay): biochemical
Assay [1] addresses T1, panel of 374 wild-type kinases (Homo sapiens, UniProt Q00526).
T1 construct: purchased Reaction Biology Corporation

Assay [2] deals with T2, panel of 374 wild-type kinases (Homo sapiens, UniProt Q9NY57).
T2 construct: purchased Reaction Biology Corporation
The settings on record: read-out: % Enzyme Activity (relative to DMSO controls), kinase STK32B/YANK2.

For assay [3], the target named is T3, panel of 374 wild-type kinases (Homo sapiens, UniProt Q9UKI8).
T3 construct: purchased Reaction Biology Corporation
T3 sequence (Q9UKI8 1-766): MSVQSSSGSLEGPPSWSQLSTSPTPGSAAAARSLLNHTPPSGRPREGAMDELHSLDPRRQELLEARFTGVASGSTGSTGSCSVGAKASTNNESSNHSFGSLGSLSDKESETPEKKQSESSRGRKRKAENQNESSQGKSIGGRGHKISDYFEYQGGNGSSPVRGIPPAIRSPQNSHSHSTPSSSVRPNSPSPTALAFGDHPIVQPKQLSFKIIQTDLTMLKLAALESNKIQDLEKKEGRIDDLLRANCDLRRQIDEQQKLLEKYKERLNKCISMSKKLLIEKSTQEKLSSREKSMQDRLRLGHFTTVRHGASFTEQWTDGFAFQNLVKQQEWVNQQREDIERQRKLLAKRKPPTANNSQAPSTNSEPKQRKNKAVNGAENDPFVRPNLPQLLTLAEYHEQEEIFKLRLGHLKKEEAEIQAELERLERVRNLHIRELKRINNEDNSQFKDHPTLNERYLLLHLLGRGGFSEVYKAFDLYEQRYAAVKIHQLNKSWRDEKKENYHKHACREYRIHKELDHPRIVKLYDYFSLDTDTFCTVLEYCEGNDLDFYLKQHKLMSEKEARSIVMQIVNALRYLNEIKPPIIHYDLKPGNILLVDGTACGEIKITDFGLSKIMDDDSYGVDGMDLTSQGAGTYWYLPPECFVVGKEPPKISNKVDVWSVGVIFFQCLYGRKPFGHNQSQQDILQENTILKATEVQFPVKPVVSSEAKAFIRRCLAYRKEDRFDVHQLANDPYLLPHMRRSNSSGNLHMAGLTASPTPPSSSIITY
The settings on record: read-out: % Enzyme Activity (relative to DMSO controls), kinase TLK1.

Assay [4] has as its target T4, panel of 374 wild-type kinases (Homo sapiens, UniProt P42681).
T4 construct: purchased Reaction Biology Corporation
T4 sequence (P42681 1-527): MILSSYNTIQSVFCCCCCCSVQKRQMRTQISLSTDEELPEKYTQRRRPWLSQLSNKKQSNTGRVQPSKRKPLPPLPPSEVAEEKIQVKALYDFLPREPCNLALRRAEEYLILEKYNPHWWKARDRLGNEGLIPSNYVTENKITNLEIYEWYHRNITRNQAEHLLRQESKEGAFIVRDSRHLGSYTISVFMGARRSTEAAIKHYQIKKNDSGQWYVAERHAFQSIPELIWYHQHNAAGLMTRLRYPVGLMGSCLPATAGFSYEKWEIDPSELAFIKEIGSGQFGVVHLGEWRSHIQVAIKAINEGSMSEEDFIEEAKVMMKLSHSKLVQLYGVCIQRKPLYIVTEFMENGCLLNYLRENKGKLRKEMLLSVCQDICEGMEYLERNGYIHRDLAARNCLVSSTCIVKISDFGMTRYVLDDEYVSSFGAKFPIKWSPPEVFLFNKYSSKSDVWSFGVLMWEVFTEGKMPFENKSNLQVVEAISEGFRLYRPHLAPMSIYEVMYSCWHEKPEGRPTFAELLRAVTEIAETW
The settings on record: read-out: % Enzyme Activity (relative to DMSO controls), kinase TXK.

Assay [5] concerns the target T5, panel of 374 wild-type kinases (Homo sapiens, UniProt P11362).
T5 construct: purchased Reaction Biology Corporation
Conditions: read-out: % Enzyme Activity (relative to DMSO controls), FGFR1.

The target in assay [6] is T6, panel of 374 wild-type kinases (Homo sapiens, UniProt Q16512).
T6 construct: purchased Reaction Biology Corporation
The settings on record: read-out: % Enzyme Activity (relative to DMSO controls), kinase PKN1/PRK1.

Assay [7] addresses T7, panel of 374 wild-type kinases (Homo sapiens, UniProt Q86YV6).
T7 construct: purchased Reaction Biology Corporation
T7 sequence (Q86YV6 1-388): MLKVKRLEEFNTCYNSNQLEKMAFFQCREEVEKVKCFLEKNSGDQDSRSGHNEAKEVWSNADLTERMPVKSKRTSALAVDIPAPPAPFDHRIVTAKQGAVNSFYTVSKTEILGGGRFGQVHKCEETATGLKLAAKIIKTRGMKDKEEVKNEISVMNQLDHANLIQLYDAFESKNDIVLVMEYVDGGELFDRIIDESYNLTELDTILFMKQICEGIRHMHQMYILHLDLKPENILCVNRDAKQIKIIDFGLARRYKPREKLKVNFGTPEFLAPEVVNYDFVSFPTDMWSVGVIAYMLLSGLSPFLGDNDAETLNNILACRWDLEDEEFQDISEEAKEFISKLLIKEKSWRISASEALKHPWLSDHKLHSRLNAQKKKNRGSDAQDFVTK
Conditions: read-out: % Enzyme Activity (relative to DMSO controls), MYLK4.

In assay [8] the target is T8, panel of 374 wild-type kinases (Homo sapiens, UniProt P31749).
T8 construct: purchased Reaction Biology Corporation
Conditions: read-out: % Enzyme Activity (relative to DMSO controls), AKT1.

In assay [9] the target is T9, panel of 374 wild-type kinases (Homo sapiens, UniProt P04049).
T9 construct: purchased Reaction Biology Corporation
The settings on record: read-out: % Enzyme Activity (relative to DMSO controls), kinase RAF1.

Assay [10] deals with T10, panel of 374 wild-type kinases (Homo sapiens, UniProt P36507).
T10 construct: purchased Reaction Biology Corporation
The settings on record: read-out: % Enzyme Activity (relative to DMSO controls), MEK2.

The target in assay [11] is T11, panel of 374 wild-type kinases (Homo sapiens, UniProt Q9Y2H1).
T11 construct: purchased Reaction Biology Corporation
The settings on record: read-out: % Enzyme Activity (relative to DMSO controls), kinase STK38L/NDR2.

Assay [12] addresses T12, panel of 374 wild-type kinases (Homo sapiens, UniProt P49336).
T12 construct: purchased Reaction Biology Corporation
Conditions: read-out: % Enzyme Activity (relative to DMSO controls), CDK8/cyclin C.

Assay [13] addresses T13, panel of 374 wild-type kinases (Homo sapiens, UniProt P78362).
T13 construct: purchased Reaction Biology Corporation
The settings on record: read-out: % Enzyme Activity (relative to DMSO controls), kinase SRPK2.

Where [14] appears, read: read-out: % Enzyme Activity (relative to DMSO controls), CDK3/cyclin E2.
Setting [15] is: read-out: % Enzyme Activity (relative to DMSO controls), CDK3/cyclin E.

Like-named read-outs stand apart in the source and are kept apart here.

T6 sequence (Q16512 whole entry): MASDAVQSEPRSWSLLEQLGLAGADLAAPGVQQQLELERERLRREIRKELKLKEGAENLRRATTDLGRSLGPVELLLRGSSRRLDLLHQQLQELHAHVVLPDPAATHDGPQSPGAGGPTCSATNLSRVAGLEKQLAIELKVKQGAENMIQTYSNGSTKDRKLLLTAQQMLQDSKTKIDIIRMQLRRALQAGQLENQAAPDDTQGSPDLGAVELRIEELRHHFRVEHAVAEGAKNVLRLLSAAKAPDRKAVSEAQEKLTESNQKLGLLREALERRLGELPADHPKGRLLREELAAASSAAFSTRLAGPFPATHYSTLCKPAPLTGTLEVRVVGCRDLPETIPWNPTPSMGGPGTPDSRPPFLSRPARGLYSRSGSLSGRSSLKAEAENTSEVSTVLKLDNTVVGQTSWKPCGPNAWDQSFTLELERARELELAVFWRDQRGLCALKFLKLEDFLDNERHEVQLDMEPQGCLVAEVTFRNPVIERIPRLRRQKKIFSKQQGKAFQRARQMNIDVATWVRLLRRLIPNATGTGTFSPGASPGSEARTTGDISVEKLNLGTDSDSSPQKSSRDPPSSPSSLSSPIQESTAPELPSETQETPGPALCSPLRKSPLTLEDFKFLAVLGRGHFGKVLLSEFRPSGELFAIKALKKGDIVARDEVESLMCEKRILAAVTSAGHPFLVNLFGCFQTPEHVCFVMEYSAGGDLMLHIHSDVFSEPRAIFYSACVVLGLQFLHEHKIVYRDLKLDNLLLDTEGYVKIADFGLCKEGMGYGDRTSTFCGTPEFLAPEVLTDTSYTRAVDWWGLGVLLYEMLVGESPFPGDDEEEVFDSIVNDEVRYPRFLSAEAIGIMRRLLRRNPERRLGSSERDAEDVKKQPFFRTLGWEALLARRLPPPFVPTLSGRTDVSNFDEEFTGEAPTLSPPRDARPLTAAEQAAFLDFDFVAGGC
T13 sequence (P78362 whole entry): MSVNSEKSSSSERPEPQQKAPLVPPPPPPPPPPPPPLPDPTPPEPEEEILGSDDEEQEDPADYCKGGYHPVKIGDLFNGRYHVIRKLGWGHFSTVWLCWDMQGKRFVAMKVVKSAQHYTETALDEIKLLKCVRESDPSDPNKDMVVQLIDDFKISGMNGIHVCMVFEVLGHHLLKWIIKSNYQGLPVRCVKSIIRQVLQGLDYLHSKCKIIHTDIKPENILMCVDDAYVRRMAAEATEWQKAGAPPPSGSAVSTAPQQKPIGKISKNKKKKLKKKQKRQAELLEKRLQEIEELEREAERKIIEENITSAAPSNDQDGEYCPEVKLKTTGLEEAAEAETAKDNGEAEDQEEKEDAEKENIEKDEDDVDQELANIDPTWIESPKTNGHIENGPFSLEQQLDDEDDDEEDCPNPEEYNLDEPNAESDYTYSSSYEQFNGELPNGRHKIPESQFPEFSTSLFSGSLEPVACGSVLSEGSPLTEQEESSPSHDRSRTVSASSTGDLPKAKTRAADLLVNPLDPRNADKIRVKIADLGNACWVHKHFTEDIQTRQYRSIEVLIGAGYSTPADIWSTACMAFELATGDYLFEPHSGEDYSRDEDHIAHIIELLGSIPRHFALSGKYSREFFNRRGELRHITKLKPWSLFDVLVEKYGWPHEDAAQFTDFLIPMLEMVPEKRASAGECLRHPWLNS
T8 sequence (P31749 whole entry): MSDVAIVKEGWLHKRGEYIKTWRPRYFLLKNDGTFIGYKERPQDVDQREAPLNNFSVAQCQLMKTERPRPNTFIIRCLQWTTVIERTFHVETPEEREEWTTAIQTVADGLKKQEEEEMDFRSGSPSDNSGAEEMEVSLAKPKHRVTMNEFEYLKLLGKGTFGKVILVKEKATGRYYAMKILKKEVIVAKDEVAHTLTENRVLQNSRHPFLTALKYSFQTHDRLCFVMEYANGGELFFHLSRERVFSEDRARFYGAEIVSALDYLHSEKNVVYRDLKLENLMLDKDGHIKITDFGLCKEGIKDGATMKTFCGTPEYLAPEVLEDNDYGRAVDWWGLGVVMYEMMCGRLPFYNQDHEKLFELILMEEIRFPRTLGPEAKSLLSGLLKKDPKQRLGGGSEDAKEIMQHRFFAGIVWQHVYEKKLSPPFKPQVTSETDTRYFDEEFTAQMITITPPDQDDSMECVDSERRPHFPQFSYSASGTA
T5 sequence (P11362 22-822): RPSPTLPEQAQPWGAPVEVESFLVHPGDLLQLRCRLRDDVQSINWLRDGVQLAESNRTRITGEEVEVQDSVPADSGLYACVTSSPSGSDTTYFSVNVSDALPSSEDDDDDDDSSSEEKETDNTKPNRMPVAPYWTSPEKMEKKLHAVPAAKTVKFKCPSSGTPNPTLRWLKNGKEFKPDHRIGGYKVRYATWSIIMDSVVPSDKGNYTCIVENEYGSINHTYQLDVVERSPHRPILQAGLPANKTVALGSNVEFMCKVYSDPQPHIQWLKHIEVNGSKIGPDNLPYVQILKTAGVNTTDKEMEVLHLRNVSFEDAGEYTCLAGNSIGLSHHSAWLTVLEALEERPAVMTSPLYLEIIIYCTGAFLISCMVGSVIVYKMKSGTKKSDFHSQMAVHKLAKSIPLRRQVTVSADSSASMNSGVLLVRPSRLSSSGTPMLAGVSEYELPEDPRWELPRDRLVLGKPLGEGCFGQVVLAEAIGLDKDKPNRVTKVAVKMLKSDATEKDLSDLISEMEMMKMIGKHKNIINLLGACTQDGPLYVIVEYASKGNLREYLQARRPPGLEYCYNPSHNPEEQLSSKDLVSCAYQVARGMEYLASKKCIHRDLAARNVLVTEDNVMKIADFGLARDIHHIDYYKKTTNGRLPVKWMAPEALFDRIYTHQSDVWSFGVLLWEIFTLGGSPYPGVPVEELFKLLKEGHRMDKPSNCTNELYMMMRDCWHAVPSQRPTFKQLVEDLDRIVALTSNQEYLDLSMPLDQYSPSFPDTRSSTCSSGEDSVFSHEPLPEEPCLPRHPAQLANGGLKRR
T2 sequence (Q9NY57 whole entry): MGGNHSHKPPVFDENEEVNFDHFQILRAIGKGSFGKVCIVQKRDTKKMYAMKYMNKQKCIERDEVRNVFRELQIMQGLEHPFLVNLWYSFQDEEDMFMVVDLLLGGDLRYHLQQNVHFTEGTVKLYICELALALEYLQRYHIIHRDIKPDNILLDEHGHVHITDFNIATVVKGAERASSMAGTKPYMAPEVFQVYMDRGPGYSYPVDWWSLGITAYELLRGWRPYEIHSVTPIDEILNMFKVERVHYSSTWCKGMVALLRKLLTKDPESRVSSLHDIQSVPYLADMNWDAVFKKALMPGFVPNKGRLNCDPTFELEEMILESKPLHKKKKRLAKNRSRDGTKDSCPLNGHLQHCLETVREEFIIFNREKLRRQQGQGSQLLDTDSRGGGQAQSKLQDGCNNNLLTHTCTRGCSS
T12 sequence (P49336 whole entry): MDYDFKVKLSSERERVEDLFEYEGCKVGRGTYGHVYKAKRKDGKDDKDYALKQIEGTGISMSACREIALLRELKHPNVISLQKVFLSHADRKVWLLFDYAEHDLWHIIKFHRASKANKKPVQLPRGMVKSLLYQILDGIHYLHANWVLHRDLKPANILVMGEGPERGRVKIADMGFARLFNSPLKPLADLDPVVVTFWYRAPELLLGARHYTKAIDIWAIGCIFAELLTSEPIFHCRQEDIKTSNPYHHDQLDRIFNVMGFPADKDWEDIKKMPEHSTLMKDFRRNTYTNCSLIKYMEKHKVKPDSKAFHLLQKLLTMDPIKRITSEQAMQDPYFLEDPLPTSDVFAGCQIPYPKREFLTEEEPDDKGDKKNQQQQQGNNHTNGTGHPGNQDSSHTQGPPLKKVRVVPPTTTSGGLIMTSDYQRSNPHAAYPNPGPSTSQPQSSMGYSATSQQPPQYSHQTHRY
T9 sequence (P04049 whole entry): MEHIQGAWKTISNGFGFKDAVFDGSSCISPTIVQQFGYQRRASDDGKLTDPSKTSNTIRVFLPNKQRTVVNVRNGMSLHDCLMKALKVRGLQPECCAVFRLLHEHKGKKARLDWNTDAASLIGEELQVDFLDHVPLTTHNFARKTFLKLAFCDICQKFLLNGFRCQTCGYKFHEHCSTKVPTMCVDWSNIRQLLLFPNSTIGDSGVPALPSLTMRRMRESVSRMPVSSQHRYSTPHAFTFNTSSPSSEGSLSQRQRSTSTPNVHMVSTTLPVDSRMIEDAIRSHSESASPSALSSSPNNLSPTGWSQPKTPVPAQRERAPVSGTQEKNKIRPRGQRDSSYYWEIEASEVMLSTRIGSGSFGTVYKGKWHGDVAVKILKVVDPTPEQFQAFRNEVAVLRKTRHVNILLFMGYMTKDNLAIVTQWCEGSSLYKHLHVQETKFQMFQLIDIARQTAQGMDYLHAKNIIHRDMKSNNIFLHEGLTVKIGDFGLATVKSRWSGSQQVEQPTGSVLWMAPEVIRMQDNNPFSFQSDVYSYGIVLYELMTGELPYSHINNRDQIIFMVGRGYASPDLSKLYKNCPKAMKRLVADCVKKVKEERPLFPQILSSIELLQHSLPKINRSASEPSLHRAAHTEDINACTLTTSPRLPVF
T11 sequence (Q9Y2H1 whole entry): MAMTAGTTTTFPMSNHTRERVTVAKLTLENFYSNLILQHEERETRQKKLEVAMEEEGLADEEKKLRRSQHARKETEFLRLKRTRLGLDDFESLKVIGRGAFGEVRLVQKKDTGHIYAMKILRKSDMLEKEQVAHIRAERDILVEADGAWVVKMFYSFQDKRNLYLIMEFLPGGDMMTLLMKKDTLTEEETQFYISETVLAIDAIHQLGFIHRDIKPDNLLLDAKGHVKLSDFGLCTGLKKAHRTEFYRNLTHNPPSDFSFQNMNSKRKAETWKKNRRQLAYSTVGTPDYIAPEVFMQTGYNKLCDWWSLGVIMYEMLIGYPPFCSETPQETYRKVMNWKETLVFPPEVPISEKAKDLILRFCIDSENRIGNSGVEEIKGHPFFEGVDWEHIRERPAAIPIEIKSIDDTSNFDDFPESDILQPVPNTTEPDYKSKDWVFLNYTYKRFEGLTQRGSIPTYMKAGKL

On to `O=C(Nc1cnn(-c2csc(C(=O)NC3COC3)c2)c1)Nc1ccccc1Cl` [Compound 17, 4-(4-(3-(2-chlorophenyl)ureido)-1H-pyrazol-1-yl)-N-(oxetan-3-yl)thiophene-2-carboxamide], for which the remaining activity at 5 µM is 95.8% in assay [1] (setting [14]); 107% in [1] (setting [15]); 122% in assay [2]; 105% in [3]; 89.8% in [4]; 98.5% in [5]. Further, the remaining activity at 5 µM in assay [6] turned out to be 110%; in assay [7] it was 85.2%; in assay [8], 95.4%; in assay [9] it was 87%; in assay [10] it was 92.2%; in assay [11], 103%. Besides, the remaining activity at 5 µM in assay [12] stood at 101%; in [13], 95.6%.
Regarding `O=C(Nc1cnn(-c2csc(C(=O)NC3COC3)c2)c1)Nc1c(F)cccc1Cl` [Compound 25, 4-(4-(3-(2-chloro-6-fluorophenyl)ureido)-1H-pyrazol-1-yl)-N-(oxetan-3-yl)thiophene-2-carboxamide], the remaining activity at 5 µM in assay [1] (setting [14]) worked out at 109%; in assay [1] (setting [15]), 92.2%; in assay [2], 103%; in assay [3] it was 53.4%; in assay [4] it was 90.8%; in assay [5], 93.2%. The remaining activity at 5 µM turned out to be 96.5% in assay [6]; 91.7% in assay [7]; 105% in assay [8]; 92.5% in assay [9]; 90.6% in assay [10]; 94.8% in assay [11]. Moreover, the remaining activity at 5 µM in [12] was 99%; in assay [13], 94%.
As to `Cc1sc(C(=O)NC2COC2)cc1-n1cc(NC(=O)Nc2c(F)cccc2Cl)cn1` [Compound 27, 4-(4-(3-(2-chloro-6-fluorophenyl)ureido)-1H-pyrazol-1-yl)-5-methyl-N-(oxetan-3-yl)thiophene-2-carboxamide], the remaining activity at 10 µM in assay [1] (setting [14]) was 103%; in assay [1] (setting [15]), 91.2%; in assay [2] (10 uM) it was 89.8%; in assay [3] (10 uM), 105%; in assay [4] (10 uM) it was 76.7%; in assay [5] (10 uM), 114%. The remaining activity at 10 µM in assay [6] (10 uM) amounted to 76.8%; in assay [7] (10 uM), 109%; in assay [8] (10 uM) it was 105%; in assay [9] (10 uM), 92.6%; in assay [10] (10 uM), 99.5%; in assay [11] (10 uM) it was 95.1%. The values for the remaining activity at 10 µM in assay [12] (10 uM) and in assay [13] (10 uM) were 92.7% and 114%, respectively.

(Values after patent publication US20240246942A1, “KINASE INHIBITORS FOR THE TREATMENT OF NEURODEGENERATIVE DISEASES” (priority 2020, published 2024).)
